Measurements: US20110306597A1, “Nicotinamide Derivatives” (priority 2008, published 2011)
pIC50: −log10 of the molar value.

The compounds below were run against human recombinant H-PGDS (Homo sapiens, UniProt O60760) (assay: Fluorescence Intensity h-PGDS TBA Enzyme Assay). Settings: 1:175,000 human recombinant H-PGDS, highest inhibitor concentration typically 1 μM.
Assay type: biochemical
How it was run: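 Recombinant human H-PGDS preincubated 10 min at room temperature with inhibitor in 100 mM Tris pH 8.0, 100 μM MgCl2, 2.5 mM glutathione, 0.5% DMSO; 5.0 μM PGH2 added, stopped after 42 s with FeCl2/citric acid. Remaining PGH2 measured as MDA–TBA fluorescence (ex 530/em 565 nm); IC50 by 4-parameter fit, 11 concentrations.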

Sequence of human recombinant H-PGDS (O60760 whole entry): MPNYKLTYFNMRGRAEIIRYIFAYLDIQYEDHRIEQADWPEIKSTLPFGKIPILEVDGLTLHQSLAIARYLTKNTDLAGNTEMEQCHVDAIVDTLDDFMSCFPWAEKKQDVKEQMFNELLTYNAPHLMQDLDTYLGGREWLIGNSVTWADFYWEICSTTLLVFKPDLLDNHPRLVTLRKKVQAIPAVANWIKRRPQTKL

SMILES | pIC50
O=C(NCC1(O)CCCC1)c1ccc(-c2cccc(F)c2)nc1 [Example 140, 6-(3-Fluorophenyl)-N-[(1-hydroxycyclopentyl)methyl] nicotinamide] | 7.49
COCCN1CCC2(CC1)CC(NC(=O)c1ccc(-c3cccc(F)c3)nc1)CO2 (stereo not shown) [Example 142, 6-(3-Fluorophenyl)-N-[8-(2-methoxyethyl)-1-oxa-8-azaspiro[4.5]dec-3-yl]nicotinamide] | 7.60
Cc1cc(C)nc(CCNC(=O)c2ccc(-c3cccc(F)c3)nc2)n1 [Example 143, N-[2-(4,6-Dimethylpyrimidin-2-yl)ethyl]-6-(3-fluorophenyl)nicotinamide] | 7.96
CN1CCN(CC(NC(=O)c2ccc(-c3cccc(F)c3)nc2)c2ccccc2)CC1 (stereo not shown) [Example 144, 6-(3-Fluorophenyl)-N-[2-(4-methylpiperazin-1-yl)-1-phenylethyl]nicotinamide] | 6.96
O=C(NCc1nc2cc(F)ccc2[nH]1)c1ccc(-c2cccc(F)c2)nc1 [Example 146, N-[(5-Fluoro-1H-benzimidazol-2-yl)methyl]-6-(3-fluorophenyl)nicotinamide] | 7.47
O=C(NCCN1CCNC1=O)c1ccc(-c2cccc(F)c2)nc1 [Example 148, 6-(3-Fluorophenyl)-N-[2-(2-oxoimidazolidin-1-yl)ethyl]nicotinamide] | 7.49
O=C(NC1COC2(CCN(c3nc4ccccc4[nH]3)CC2)C1)c1ccc(-c2cccc(F)c2)nc1 (stereo not shown) [Example 150, N-[8-(1H-Benzimidazol-2-yl)-1-oxa-8-azaspiro[4.5]dec-3-yl]-6-(3-fluorophenyl)nicotinamide] | 8.54
Cc1ccccc1CNC(=O)c1ccc(-c2ccccc2)nc1 [Example 151, N-(2-Methylbenzyl)-6-phenylnicotinamide] | 8.73
O=C(NCc1coc(-c2ccccc2)n1)c1ccc(-c2cccc(F)c2)nc1 [Example 152, 6-(3-Fluorophenyl)-N-[(2-phenyl-1,3-oxazol-4-yl)methyl]nicotinamide] | 8.35
Cc1ccccc1CNC(=O)c1ccc(-c2cccc(F)c2)nc1 [Example 153, 6-(3-Fluorophenyl)-N-(2-methylbenzyl)nicotinamide] | 8.52
O=C(NCc1ccc(Cl)c(Cl)c1)c1ccc(-c2cccc(F)c2)nc1 [Example 154, N-(3,4-Dichlorobenzyl)-6-(3-fluorophenyl)nicotinamide] | 7.36
CCOC(=O)C(CNC(=O)c1ccc(-c2cccc(F)c2)nc1)C1CCCC1 (stereo not shown) [Example 155, Ethyl 2-cyclopentyl-3-({[6-(3-fluorophenyl)pyridin-3-yl]carbonyl}amino)propanoate] | 8.23
O=C(NCCCN1CCCC1=O)c1ccc(-c2cccc(F)c2)nc1 [Example 156, 6-(3-Fluorophenyl)-N-[3-(2-oxopyrrolidin-1-yl)propyl]nicotinamide] | 7.80
O=C(NC1CCN(Cc2ccc(Cl)c(Cl)c2)C1=O)c1ccc(-c2cccc(F)c2)nc1 (stereo not shown) [Example 160, N-[1-(3,4-Dichlorobenzyl)-2-oxopyrrolidin-3-yl]-6-(3-fluorophenyl)nicotinamide] | 7.39
CCOC(=O)C(CNC(=O)c1ccc(-c2cccc(F)c2)nc1)c1c(F)cccc1F (stereo not shown) [Example 163, Ethyl 2-(2,6-difluorophenyl)-3-({[6-(3-fluorophenyl)pyridin-3-yl]carbonyl}amino)propanoate] | 6.84
O=C(NCCN1CCCCC1=O)c1ccc(-c2cccc(F)c2)nc1 [Example 164, 6-(3-Fluorophenyl)-N-[2-(2-oxopiperidin-1-yl)ethyl]nicotinamide] | 8.04
CS(=O)(=O)Cc1noc(CNC(=O)c2ccc(-c3cccc(F)c3)nc2)n1 [Example 167, 6-(3-Fluorophenyl)-N-({3-[(methylsulfonyl)methyl]-1,2,4-oxadiazol-5-yl}methyl)nicotinamide] | 6.55
CN(C)CC(C)(C)CNC(=O)c1ccc(-c2cccc(F)c2)nc1 [Example 168, N-[3-(Dimethylamino)-2,2-dimethylpropyl]-6-(3-fluorophenyl)nicotinamide] | 6.76
O=C(NCCN1CCOCC1)c1ccc(-c2cccc(F)c2)nc1 [Example 169, 6-(3-Fluorophenyl)-N-(2-morpholin-4-ylethyl)nicotinamide] | 7.36
O=C(NCCC1CCCCO1)c1ccc(-c2cccc(F)c2)nc1 (stereo not shown) [Example 172, 6-(3-Ffluorophenyl)-N-[2-(tetrahydro-2H-pyran-2-yl)ethyl]nicotinamide] | 8.24
CN1CCC(CCNC(=O)c2ccc(-c3cccc(F)c3)nc2)CC1 [Example 175, 6-(3-Fluorophenyl)-N-[2-(1-methylpiperidin-4-yl)ethyl]nicotinamide] | 7.33
O=C(NCCN1CCN(Cc2ccccc2)CC1)c1ccc(-c2cccc(F)c2)nc1 [Example 176, N-[2-(4-Benzylpiperazin-1-yl)ethyl]-6-(3-fluorophenyl)nicotinamide] | 7.48
O=C(Nc1ccncc1)c1ccc(-c2cccc(F)c2)nc1 [Example 177, 6-(3-Fluorophenyl)-N-pyridin-4-ylnicotinamide] | 8.09
CC(=O)N1CCC(CNC(=O)c2ccc(-c3cccc(F)c3)nc2)CC1 [Example 178, N-[(1-Acetylpiperidin-4-yl)methyl]-6-(3-fluorophenyl)nicotinamide] | 8.16
O=C(NCc1ccc(-n2cncn2)cc1)c1ccc(-c2cccc(F)c2)nc1 [Example 180, 6-(3-Fluorophenyl)-N-[4-(1H-1,2,4-triazol-1-yl)benzyl]nicotinamide] | 7.64
Cc1noc(CCNC(=O)c2ccc(-c3cccc(F)c3)nc2)n1 [Example 181, 6-(3-Fluorophenyl)-N-[2-(3-methyl-1,2,4-oxadiazol-5-yl)ethyl]nicotinamide] | 7.35
O=C(NCc1cn2ncsc2n1)c1ccc(-c2cccc(F)c2)nc1 [Example 182, 6-(3-Fluorophenyl)-N-(imidazo[2,1-b][1,3,4]thiadiazol-6-ylmethyl)nicotinamide] | 7.10
O=C(NCCN1CCCC1=O)c1ccc(-c2cccc(F)c2)nc1 [Example 183, 6-(3-Fluorophenyl)-N-[2-(2-oxopyrrolidin-1-yl)ethyl]nicotinamide] | 7.76
O=C(NCc1cc(F)cc2c1OCOC2)c1ccc(-c2cccc(F)c2)nc1 [Example 184, N-[(6-Fluoro-4H-1,3-benzodioxin-8-yl)methyl]-6-(3-fluorophenyl)nicotinamide] | 7.31
O=C(NCCc1ccncc1)c1ccc(-c2cccc(F)c2)nc1 [Example 185, 6-(3-Fluorophenyl)-N-(2-pyridin-4-ylethyl)nicotinamide] | 8.05

More lines, now with the values ahead:

pIC50 | SMILES
7.46 | O=C(NCC1(O)CCC1)c1ccc(-c2cccc(F)c2)nc1 [Example 141, 6-(3-Fuorophenyl)-N-[(1-hydroxycyclobutyl)methyl] nicotinamide]
6.65 | CCOC(=O)C(C)(C)NC(=O)c1ccc(-c2cccc(F)c2)nc1 [Example 145, Ethyl N-{[6-(3-fluorophenyl)pyridin-3-yl]carbonyl}-2-methylalaninate]
6.42 | COC(=O)[C@@H](NC(=O)c1ccc(-c2cccc(F)c2)nc1)[C@@H](C)O [Example 147, Methyl N-{[6-(3-fluorophenyl)pyridin-3-yl]carbonyl}-L-threoninate]
7.70 | O=C(NCCCCO)c1ccc(-c2cccc(F)c2)nc1 [Example 149, 6-(3-Fluorophenyl)-N-(4-hydroxybutyl)nicotinamide]
8.06 | CCOC(=O)CC(C)NC(=O)c1ccc(-c2cccc(F)c2)nc1 (stereo not shown) [Example 157, Ethyl 3-({[6-(3-fluorophenyl)pyridin-3-yl]carbonyl}amino)butanoate]
6.47 | CN(C)CCNC(=O)c1ccc(-c2cccc(F)c2)nc1 [Example 158, N-[2-(Dimethylamino)ethyl]-6-(3-fluorophenyl)nicotinamide]
6.41 | CCOC(=O)C1(NC(=O)c2ccc(-c3cccc(F)c3)nc2)CCOCC1 [Example 159, Ethyl 4-({[6-(3-fluorophenyl)pyridin-3-yl]carbonyl}amino)tetrahydro-2H-pyran-4-carboxylate]
7.06 | CN(C)C(=O)CNC(=O)c1ccc(-c2cccc(F)c2)nc1 [Example 161, N-[2-(dimethylamino)-2-oxoethyl]-6-(3-fluorophenyl)nicotinamide]
7.71 | CCOC(=O)CC(NC(=O)c1ccc(-c2cccc(F)c2)nc1)c1ccc(OC)cc1 (stereo not shown) [Example 162, Ethyl 3-({[6-(3-fluorophenyl)pyridin-3-yl]carbonyl}amino)-3-(4-methoxyphenyl)propanoate]
7.68 | COC(=O)CNC(=O)[C@H](C)NC(=O)c1ccc(-c2cccc(F)c2)nc1 [Example 165, Methyl N-{[6-(3-fluorophenyl)pyridin-3-yl]carbonyl}-L-alanylglycinate]
8.59 | CCOC(=O)CC[C@@H](NC(=O)c1ccc(-c2cccc(F)c2)nc1)C(=O)OCC [Example 166, Diethyl N-{[6-(3-fluorophenyl)pyridin-3-yl]carbonyl}-D-glutamate]
7.58 | CC(C)CNC(=O)c1ccc(-c2cccc(F)c2)nc1 [Example 170, 6-(3-Fluorophenyl)-N-isobutylnicotinamide]
7.28 | COC(=O)CC(NC(=O)c1ccc(-c2cccc(F)c2)nc1)c1cccnc1 (stereo not shown) [Example 171, Methyl 3-({[6-(3-fluorophenyl)pyridin-3-yl]carbonyl}amino)-3-pyridin-3-ylpropanoate]
7.09 | COC(=O)CNC(=O)c1ccc(-c2cccc(F)c2)nc1 [Example 173, Methyl N-{[6-(3-fluorophenyl)pyridin-3-yl]carbonyl}glycinate]
6.22 | COC(=O)[C@H](C)NC(=O)c1ccc(-c2cccc(F)c2)nc1 [Example 174, Methyl N-{[6-(3-fluorophenyl)pyridin-3-yl]carbonyl}alaninate]
7.69 | CC(C)NC(=O)c1ccc(-c2cccc(F)c2)nc1 [Example 179, 6-(3-Fluorophenyl)-N-isopropylnicotinamide]
